Experimental data: patent US12410166B2, “Sulfonylamidine substituted compounds and their use as beta-lactamase inhibitors” (NINGXIA ACADEMY OF AGRICULTURE AND FORESTRY SCIENCES, priority 2021, dated 2025)
Where a name gives a salt, the structure may show the parent alone.

Tests used:
Experiment in all cases: MIC by broth microdilution (antibacterial and synergistic activity)
Format in all cases: cell-based
[1] = system: K. pneumoniae clinical isolate (strain 3, SHV-1); settings: Klebsiella pneumoniae; strain 3 (SHV-1); compound alone, no antibiotic; read-out: Antibacterial activity, MIC, inhibitor Alone
Procedure: (§1) Compounds of the present invention alone, avibactam (AVI) alone, relebactam (REL) alone, meropenem (MER) alone, imipenem (IMI) alone, and as a combination of compounds of the present invention, or avibactam or relebactam with test antibiotic (meropenem or imipenem) was tested for antimicrobial activity by determining minimum inhibitory concentration (MIC, mg/L) using the broth microdilution method according to the guidelines of the Clinical Laboratories and Standards Institute (“Methods for Dilution Antimicrobial Susceptibility Tests for Bacterial that Grow Aerobically”, Approved standard, 7th ed., Clinical and Laboratories Standards Institute (CLSI) Document M7-A8, Wayne, Pa., USA, 2009). Meropenem or imipenem as a test antibiotic compound was dissolved in DMSO, and then diluted in microbial growth medium (Mueller-Hinton Broth II, cation adjusted) resulting in a final concentration range of 0.031-64 mg/L in serial two-fold dilution. In all cases the final DMSO concentration was less than 0.5%. Bacteria were added to 96-well microtitre plates containing the serial two-fold dilutions of the compounds; the final cell density was approximately 5×10^5 colony forming units/mL (CFU/mL). Plates were incubated at 37° C. for 18-24 hours and read visually. The MIC, i.e. the lowest concentration of the test compound that inhibited visible growth of the bacteria, was recorded. The same assay conditions were used when the compounds of present invention alone, avibactam or relebactam alone (as a control), and as a combination of the present invention each compound, or avibactam or relebactam with test meropenem or imipenem antibiotic compound was tested for minimum inhibitory concentration (MIC, mg/L). While test meropenem or imipenem was serially diluted as described above, a constant concentration of avibactam, or relebactam or the present invention each compound of 4 mg/L was used.
(§2) Bacterial strains that were used to evaluate the antimicrobial activity using the MIC determination included but were not limited to E. coli clinical isolate (strain 1, TEM-1), E. coli 8739 (strain 2, CTX-M15), K. pneumoniae clinical isolate (strain 3, SHV-1), K. pneumoniae 700603 (strain 4, KPC-3, TEM-1), E. cloacae clinical isolate (strain 5, P99), E. cloacae 700323 (strain 6, AmpC), A. baumannii clinical isolate (strain 7, OXA-23, OXA-40), A. baumannii 19606 (strain 8, OXA-24), P. aeruginosa clinical isolate (strain 9, KPC-2), P. aeruginosa 9027 (strain 10, AmpC).

[2] = system: E. coli clinical isolate (strain 1, TEM-1); settings: Escherichia coli; strain 1 (TEM-1); compound alone, no antibiotic; read-out: Antibacterial activity, MIC, inhibitor Alone
Procedure: as §1, §2

[3] = system: P. aeruginosa 9027 (strain 10, AmpC); settings: Pseudomonas aeruginosa; strain 10 (AmpC); compound alone, no antibiotic; read-out: Antibacterial activity, MIC, inhibitor Alone
Procedure: as §1, §2

[4] = system: A. baumannii clinical isolate (strain 7, OXA-23, OXA-40); settings: Acinetobacter baumannii; strain 7 (OXA-23/40); compound alone, no antibiotic; read-out: Antibacterial activity, MIC, inhibitor Alone
Procedure: as §1, §2

[5] = system: A. baumannii 19606 (strain 8, OXA-24); settings: Acinetobacter baumannii, read-out: Antibacterial activity, MIC, inhibitor Alone
Procedure: as §1, §2

[6] = system: E. cloacae clinical isolate (strain 5, P99); settings: Enterobacter cloacae; strain 5 (P99); compound alone, no antibiotic; read-out: Antibacterial activity, MIC, inhibitor Alone
Procedure: as §1, §2

[7] = system: E. coli 8739 (strain 2, CTX-M15); settings: Escherichia coli, read-out: Antibacterial activity, MIC, inhibitor Alone
Procedure: as §1, §2

[8] = system: K. pneumoniae 700603 (strain 4, KPC-3, TEM-1); settings: Klebsiella pneumoniae; strain 4 (KPC-3, TEM-1); compound alone, no antibiotic; read-out: Antibacterial activity, MIC, inhibitor Alone
Procedure: as §1, §2

[9] = system: P. aeruginosa clinical isolate (strain 9, KPC-2); settings: Pseudomonas aeruginosa; strain 9 (KPC-2); compound alone, no antibiotic; read-out: Antibacterial activity, MIC, inhibitor Alone
Procedure: as §1, §2

[10] = system: E. cloacae 700323 (strain 6, AmpC); settings: Enterobacter cloacae; strain 6 (AmpC); compound alone, no antibiotic; read-out: Antibacterial activity, MIC, inhibitor Alone
Procedure: as §1, §2

Measured: MIC

N=C(NS(=O)(=O)c1ccc(C(F)(F)F)cn1)[C@@H]1CC[C@@H]2CN1C(=O)N2OS(=O)(=O)O [Ex. 20, (2S,5R)-7-oxo-2-(N-((5-(trifluoromethyl)pyridin-2-yl)sulfonyl)carbamimidoyl)-1,6-diazabicyclo[3.2.1]octan-6-yl hydrogen sulfate]
> 64 µg/mL: all assays above

COc1ccc(S(=O)(=O)NC(=N)[C@@H]2CC[C@@H]3CN2C(=O)N3OS(=O)(=O)O)cn1 [Ex. 21, (2S,5R)-2-(N-((6-methoxypyridin-3-yl)sulfonyl)carbamimidoyl)-7-oxo-1,6-diazabicyclo[3.2.1]octan-6-yl hydrogen sulfate]
> 64 µg/mL: all assays above

COc1ccc(S(=O)(=O)NC(=N)[C@@H]2CC[C@@H]3CN2C(=O)N3OS(=O)(=O)O)nc1 [Ex. 22, (2S,5R)-2-(N-((5-methoxypyridin-2-yl)sulfonyl)carbamimidoyl)-7-oxo-1,6-diazabicyclo[3.2.1]octan-6-yl hydrogen sulfate]
> 64 µg/mL: all assays above

N=C(NS(=O)(=O)c1ccc(F)cn1)[C@@H]1CC[C@@H]2CN1C(=O)N2OS(=O)(=O)O [Ex. 23, (2S,5R)-2-(N-((5-fluoropyridin-2-yl)sulfonyl)carbamimidoyl)-7-oxo-1,6-diazabicyclo[3.2.1]octan-6-yl hydrogen sulfate]
> 64 µg/mL: all assays above

N=C(NS(=O)(=O)c1cnccn1)[C@@H]1CC[C@@H]2CN1C(=O)N2OS(=O)(=O)O [Ex. 24, (2S,5R)-7-oxo-2-(N-(pyrazin-2-ylsulfonyl)carbamimidoyl)-1,6-diazabicyclo[3.2.1]octan-6-yl hydrogen sulfate]
> 64 µg/mL: all assays above

O=C(NC1CCNCC1)[C@@H]1CC[C@@H]2CN1C(=O)N2OS(=O)(=O)O [REL, relebactam, reference compound]
> 64 µg/mL: all assays above
